Patent US20210015098A1, “MOLECULES HAVING PESTICIDAL UTILITY, AND INTERMEDIATES, COMPOSITIONS, AND PROCESSES, RELATED THERETO” (DOW AGROSCIENCES LLC, priority 2018, published 2021)

Experiments:
[1] = tested on: Cabbage Looper (Trichoplusia ni, TRIPNI); experiment: Bioassays on Cabbage Looper (CL), 128-well diet tray assay; format: in vivo; details: Cabbage Looper, Table ABC Biological Results, read-out: CL (rating)
Method: (§1) Certain molecules disclosed in this document were tested against BAW and CL using procedures described in the following examples. In the reporting of the results, the “BAW & CL Rating Table” was used (See Table Section).
Bioassays on CL were conducted using a 128-well diet tray assay. One to five second instar CL larvae were placed in each well (3 mL) of the diet tray that had been previously filled with 1 mL of artificial diet to which 50 μg/cm^2 of the test molecule (dissolved in 50 μL of 90:10 acetone-water mixture) had been applied (to each of eight wells) and then allowed to dry. Trays were covered with a clear self-adhesive cover, vented to allow gas exchange, and held at 25° C., 14:10 light-dark for five to seven days. Percent mortality was recorded for the larvae in each well; activity in the eight wells was then averaged. The results are indicated in the table entitled “Table ABC: Biological Results” (See Table Section).

[2] = tested on: Beet Armyworm (Spodoptera exigua, LAPHEG); experiment: Bioassays on Beet Armyworm (BAW), 128-well diet tray assay; format: in vivo; details: Beet Armyworm, Table ABC Biological Results, read-out: BAW (rating)
Method: as §1
Bioassays on BAW were conducted using a 128-well diet tray assay. One to five second instar BAW larvae were placed in each well (3 mL) of the diet tray that had been previously filled with 1 mL of artificial diet to which 50 μg/cm^2 of the test molecule (dissolved in 50 μL of 90:10 acetone-water mixture) had been applied (to each of eight wells) and then allowed to dry. Trays were covered with a clear self-adhesive cover, vented to allow gas exchange, and held at 25° C., 14:10 light-dark for five to seven days. Percent mortality was recorded for the larvae in each well; activity in the eight wells was then averaged. The results are indicated in the table entitled “Table ABC: Biological Results” (See Table Section).

| SMILES | pest or weed control at 50 µg/cm2 [1] | pest or weed control at 50 µg/cm2 [2] |
| --- | --- | --- |
| O=C(CSC(F)(F)F)Nc1c(F)ccc(NC(=O)c2cc(NC(=O)[C@H]3[C@H](c4cc(C(F)(F)F)cc(C(F)(F)F)c4)C3(Cl)Cl)ccc2Cl)c1F (relative stereo) [F48, trans-5-(3-(3,5-Bis(trifluoromethyl)phenyl)-2,2-dichlorocyclopropane-1-carboxamido)-2-chloro-N-(2,4-difluoro-3-(2-((trifluoromethyl)thio)acetamido)phenyl)benzamide] | 50 to 100% | 50 to 100% |
| CSC(F)(F)C(=O)Nc1c(F)ccc(NC(=O)c2cc(NC(=O)[C@H]3[C@H](c4ccc(F)c(C(F)(F)F)c4)C3(Cl)Cl)ccc2Cl)c1F [F1, 2-Chloro-5-((1R,3R)-2,2-dichloro-3-(4-fluoro-3-(trifluoromethyl)phenyl)cyclopropane-1-carboxamido)-N-(3-(2,2-difluoro-2-(methylthio)acetamido)-2,4-difluorophenyl)benzamide] | 50 to 100% | 50 to 100% |
| O=C(CSc1ccncc1)Nc1c(F)ccc(NC(=O)c2cc(NC(=O)[C@H]3[C@H](c4ccc(F)c(C(F)(F)F)c4)C3(Cl)Cl)ccc2Cl)c1F [F2, 2-Chloro-5-((1R,3R)-2,2-dichloro-3-(4-fluoro-3-(trifluoromethyl)phenyl)cyclopropane-1-carboxamido)-N-(2,4-difluoro-3-(2-(pyridin-4-ylthio)acetamido)phenyl)benzamide] | 50 to 100% | 50 to 100% |
| O=C(CSc1ccc(F)cc1)Nc1c(F)ccc(NC(=O)c2cc(NC(=O)[C@H]3[C@H](c4ccc(F)c(C(F)(F)F)c4)C3(Cl)Cl)ccc2Cl)c1F [F4, 2-Chloro-5-((1R,3R)-2,2-dichloro-3-(4-fluoro-3-(trifluoromethyl)phenyl)cyclopropane-1-carboxamido)-N-(2,4-difluoro-3-(2-((4-fluorophenyl)thio)acetamido)phenyl)benzamide] | 50 to 100% | 50 to 100% |
| O=C(CSCCC(F)(F)F)Nc1c(F)ccc(NC(=O)c2cc(NC(=O)[C@H]3[C@H](c4ccc(F)c(C(F)(F)F)c4)C3(Cl)Cl)ccc2Cl)c1F [F5, 2-Chloro-5-((1R,3R)-2,2-dichloro-3-(4-fluoro-3-(trifluoromethyl)phenyl)cyclopropane-1-carboxamido)-N-(2,4-difluoro-3-(2-((3,3,3-trifluoropropyl)thio)acetamido)phenyl)benzamide] | 50 to 100% | 50 to 100% |
| O=C(CSCC(F)(F)F)Nc1c(F)ccc(NC(=O)c2cc(NC(=O)[C@H]3[C@H](c4cc(Cl)c(Cl)c(Cl)c4)C3(Cl)Cl)ccc2Cl)c1F [F6, 2-Chloro-5-((1R,3R)-2,2-dichloro-3-(3,4,5-trichlorophenyl)cyclopropane-1-carboxamido)-N-(2,4-difluoro-3-(2-((2,2,2-trifluoroethyl)thio)acetamido)phenyl)benzamide] | 50 to 100% | 50 to 100% |
| CC(SC(F)(F)F)C(=O)Nc1c(F)ccc(NC(=O)c2cc(NC(=O)[C@H]3[C@H](c4cc(Cl)c(Cl)c(Cl)c4)C3(Cl)Cl)ccc2Cl)c1F (stereo partly drawn) [F7, 2-Chloro-5-((1R,3R)-2,2-dichloro-3-(3,4,5-trichlorophenyl)cyclopropane-1-carboxamido)-N-(2,4-difluoro-3-(2-((trifluoromethyl)thio)propanamido)phenyl)benzamide] | 50 to 100% | 50 to 100% |
| O=C(CSC(F)(F)F)Nc1c(F)ccc(NC(=O)c2cc(NC(=O)[C@H]3[C@H](c4cc(Cl)c(Cl)c(Cl)c4)C3(Cl)Cl)ccc2Cl)c1F [F8, 2-Chloro-5-((1R,3R)-2,2-dichloro-3-(3,4,5-trichlorophenyl)cyclopropane-1-carboxamido)-N-(2,4-difluoro-3-(2-((trifluoromethyl)thio)acetamido)phenyl)benzamide] | 50 to 100% | 50 to 100% |
| O=C(CSCC(F)(F)F)Nc1c(F)ccc(NC(=O)c2cc(NC(=O)[C@H]3[C@H](c4ccc(Cl)c(Cl)c4)C3(Cl)Cl)ccc2Cl)c1F [F9, 2-Chloro-5-((1R,3R)-2,2-dichloro-3-(3,4-dichlorophenyl)cyclopropane-1-carboxamido)-N-(2,4-difluoro-3-(2-((2,2,2-trifluoroethyl)thio)acetamido)phenyl)benzamide] | 50 to 100% | 50 to 100% |
| CC(SC(F)(F)F)C(=O)Nc1c(F)ccc(NC(=O)c2cc(NC(=O)[C@H]3[C@H](c4ccc(Cl)c(Cl)c4)C3(Cl)Cl)ccc2Cl)c1F (stereo partly drawn) [F10, 2-Chloro-5-((1R,3R)-2,2-dichloro-3-(3,4-dichlorophenyl)cyclopropane-1-carboxamido)-N-(2,4-difluoro-3-(2-((trifluoromethyl)thio)propanamido)phenyl)benzamide] | 50 to 100% | 50 to 100% |
| O=C(CSC(F)(F)F)Nc1c(F)ccc(NC(=O)c2cc(NC(=O)[C@H]3[C@H](c4ccc(Cl)c(Cl)c4)C3(Cl)Cl)ccc2Cl)c1F [F11, 2-Chloro-5-((1R,3R)-2,2-dichloro-3-(3,4-dichlorophenyl)cyclopropane-1-carboxamido)-N-(2,4-difluoro-3-(2-((trifluoromethyl)thio)acetamido)phenyl)benzamide] | 50 to 100% | 50 to 100% |
| O=C(CSCC(F)(F)F)Nc1c(F)ccc(NC(=O)c2cc(NC(=O)[C@H]3[C@H](c4ccc(F)c(Cl)c4)C3(Cl)Cl)ccc2Cl)c1F [F12, 2-Chloro-5-((1R,3R)-2,2-dichloro-3-(3-chloro-4-fluorophenyl)cyclopropane-1-carboxamido)-N-(2,4-difluoro-3-(2-((2,2,2-trifluoroethyl)thio)acetamido)phenyl)benzamide] | 50 to 100% | 50 to 100% |
| CC(SC(F)(F)F)C(=O)Nc1c(F)ccc(NC(=O)c2cc(NC(=O)[C@H]3[C@H](c4ccc(F)c(Cl)c4)C3(Cl)Cl)ccc2Cl)c1F (stereo partly drawn) [F13, 2-Chloro-5-((1R,3R)-2,2-dichloro-3-(3-chloro-4-fluorophenyl)cyclopropane-1-carboxamido)-N-(2,4-difluoro-3-(2-((trifluoromethyl)thio)propanamido)phenyl)benzamide] | 50 to 100% | 50 to 100% |
| O=C(CSC(F)(F)F)Nc1c(F)ccc(NC(=O)c2cc(NC(=O)[C@H]3[C@H](c4ccc(F)c(Cl)c4)C3(Cl)Cl)ccc2Cl)c1F [F14, 2-Chloro-5-((1R,3R)-2,2-dichloro-3-(3-chloro-4-fluorophenyl)cyclopropane-1-carboxamido)-N-(2,4-difluoro-3-(2-((trifluoromethyl)thio)acetamido)phenyl)benzamide] | 50 to 100% | 50 to 100% |
| O=C(CCSc1ccccc1)Nc1c(F)ccc(NC(=O)c2cc(NC(=O)[C@H]3[C@H](c4ccc(F)c(C(F)(F)F)c4)C3(Cl)Cl)ccc2Cl)c1F [F20, 2-Chloro-5-((1R,3R)-2,2-dichloro-3-(4-fluoro-3-(trifluoromethyl)phenyl)cyclopropane-1-carboxamido)-N-(2,4-difluoro-3-(3-(phenylthio)propanamido)phenyl)benzamide] | 50 to 100% | 50 to 100% |
| O=C(CCSC(F)(F)F)Nc1c(F)ccc(NC(=O)c2cc(NC(=O)[C@H]3[C@H](c4ccc(F)c(C(F)(F)F)c4)C3(Cl)Cl)ccc2Cl)c1F [F22, 2-Chloro-5-((1R,3R)-2,2-dichloro-3-(4-fluoro-3-(trifluoromethyl)phenyl)cyclopropane-1-carboxamido)-N-(2,4-difluoro-3-(3-((trifluoromethyl)thio)propanamido)phenyl)benzamide] | 50 to 100% | 50 to 100% |
| O=C(C[S+]([O-])C(F)(F)F)Nc1c(F)ccc(NC(=O)c2cc(NC(=O)[C@H]3[C@H](c4cc(Cl)c(Cl)c(Cl)c4)C3(Cl)Cl)ccc2Cl)c1F (stereo partly drawn) [F26, 2-Chloro-5-((1R,3R)-2,2-dichloro-3-(3,4,5-trichlorophenyl)cyclopropane-1-carboxamido)-N-(2,4-difluoro-3-(2-((trifluoromethyl)sulfinyl)acetamido)phenyl)benzamide] | 50 to 100% | 50 to 100% |
| CC(C(=O)Nc1c(F)ccc(NC(=O)c2cc(NC(=O)[C@H]3[C@H](c4ccc(F)c(Cl)c4)C3(Cl)Cl)ccc2Cl)c1F)[S+]([O-])C(F)(F)F (stereo partly drawn) [F27, 2-Chloro-5-((1R,3R)-2,2-dichloro-3-(3-chloro-4-fluorophenyl)cyclopropane-1-carboxamido)-N-(2,4-difluoro-3-(2-((trifluoromethyl)sulfinyl)propanamido)phenyl)benzamide] | 50 to 100% | 50 to 100% |
| O=C(C[S+]([O-])C(F)(F)F)Nc1c(F)ccc(NC(=O)c2cc(NC(=O)[C@H]3[C@H](c4ccc(F)c(Cl)c4)C3(Cl)Cl)ccc2Cl)c1F (stereo partly drawn) [F28, 2-Chloro-5-((1R,3R)-2,2-dichloro-3-(3-chloro-4-fluorophenyl)cyclopropane-1-carboxamido)-N-(2,4-difluoro-3-(2-((trifluoromethyl)sulfinyl)acetamido)phenyl)benzamide] | 50 to 100% | 50 to 100% |
